Assay results published in US20180289678A1, “PHARMACEUTICAL COMPOSITION, PHARMACEUTICAL DOSAGE FORM, PROCESS FOR THEIR PREPARATION, METHODS FOR TREATING AND USES THEREOF” (Boehringer Ingelheim International GmbH, priority 2009, published 2018).
Read-outs that look alike come from different tables or passages of the source.

Test: Study .1: single dose study in healthy volunteers, pharmacokinetic parameters
Format: in vivo, human
Details: Study .1, fasted
Method: 5. Pharmacokinetic Parameters
The pharmacokinetic parameters of pharmaceutical compositions and pharmaceutical dosage forms are assessed in healthy volunteer and patient populations. In the studies shown below, the participants fasted on the day of sampling, unless as otherwise stated (see for example study .3). The active substance in the studies below is the compound (I.9), preferably in the crystalline form (I.9X), and the dose of active ingredient is indicated in mg.
For the quantification of plasma concentrations of the active ingredient, 2.7 mL of blood was collected and transferred into an EDTA (ethylendiaminetetraacetic acid)-anticoagulant blood drawing tube. The EDTA-anticoagulated blood samples were centrifuged immediately after collection. Centrifugation lasted for about 10 minutes (at about 2,000×gf to 4,000×gf) at 4-8° C. or within 30 minutes while stored on ice. Concentrations of active substance in EDTA human plasma samples were quantitated using a HPLC/MS/MS method. The assay method comprised a solid phase supported liquid-liquid extraction of human plasma coupled with HPLC/MS/MS determination of the extracted samples. The HPLC/MS/MS assay was validated for the range of 1.11 to 1110 nM in human plasma.
Study .1: Single dose study in a healthy volunteer population of N=72. Healthy volunteers were administered tablets as described in Example 10 (section Examples of formulations).
AUC0-inf:area under the concentration-time curve of the analyte in plasma over the time interval from 0 extrapolated to infinity.
Cmax: maximum concentration of the analyte in plasma.
Tmax: time from dosing to maximum concentration.

## OC[C@H]1O[C@@H](c2ccc(Cl)c(Cc3ccc(O[C@H]4CCOC4)cc3)c2)[C@H](O)[C@@H](O)[C@@H]1O [Compound (I.9), 1-chloro-4-(β-D-glucopyranos-1-yl)-2-[4-((S)-tetrahydrofuran-3-yloxy)-benzyl]-benzene]
2.5 mg single dose
  AUC0-inf Max: 0.448 µM·h
  AUC0-inf Min: 0.336 µM·h
  AUC0-inf,norm Max: 179 nmol·h/L/mg
  AUC0-inf,norm Median: 159 nmol·h/L/mg
  AUC0-inf,norm Min: 134 nmol·h/L/mg
  AUC0-inf,norm gMean: 158 nmol·h/L/mg
  Cmax,norm Max: 24 nmol/L/mg
  Cmax,norm Median: 22 nmol/L/mg
  Cmax,norm Min: 17 nmol/L/mg
  Cmax,norm gMean: 21 nmol/L/mg
  tmax Max: 2.98 h
  tmax Min: 0.983 h
2.5 mg single dose, read-out: Cmax Max
  Cmax: 60.8 nM
2.5 mg single dose, read-out: Cmax Min
  Cmax: 42.8 nM
10 mg single dose
  AUC0-inf Max: 2.18 µM·h
  AUC0-inf Min: 1.17 µM·h
  AUC0-inf,norm Max: 218 nmol·h/L/mg
  AUC0-inf,norm Median: 178 nmol·h/L/mg
  AUC0-inf,norm Min: 117 nmol·h/L/mg
  AUC0-inf,norm gMean: 169 nmol·h/L/mg
  Cmax,norm Max: 27 nmol/L/mg
  Cmax,norm Median: 24 nmol/L/mg
  Cmax,norm Min: 14 nmol/L/mg
  Cmax,norm gMean: 22 nmol/L/mg
  tmax Max: 2.03 h
  tmax Min: 0.983 h
10 mg single dose, read-out: Cmax Max
  Cmax: 268 nM
10 mg single dose, read-out: Cmax Min
  Cmax: 143 nM
25 mg single dose
  AUC0-inf Max: 4.91 µM·h
  AUC0-inf Min: 2.66 µM·h
  AUC0-inf,norm Max: 196 nmol·h/L/mg
  AUC0-inf,norm Median: 159 nmol·h/L/mg
  AUC0-inf,norm Min: 106 nmol·h/L/mg
  AUC0-inf,norm gMean: 150 nmol·h/L/mg
  Cmax,norm Max: 27 nmol/L/mg
  Cmax,norm Median: 21 nmol/L/mg
  Cmax,norm Min: 13 nmol/L/mg
  Cmax,norm gMean: 20 nmol/L/mg
  tmax Max: 3.02 h
  tmax Min: 1.00 h
25 mg single dose, read-out: Cmax Max
  Cmax: 678 nM
25 mg single dose, read-out: Cmax Min
  Cmax: 334 nM
50 mg single dose
  AUC0-inf Max: 11.5 µM·h
  AUC0-inf Min: 7.27 µM·h
  AUC0-inf,norm Max: 230 nmol·h/L/mg
  AUC0-inf,norm Median: 166 nmol·h/L/mg
  AUC0-inf,norm Min: 145 nmol·h/L/mg
  AUC0-inf,norm gMean: 169 nmol·h/L/mg
  Cmax,norm Max: 29 nmol/L/mg
  Cmax,norm Median: 22 nmol/L/mg
  Cmax,norm Min: 14 nmol/L/mg
  Cmax,norm gMean: 22 nmol/L/mg
  tmax Max: 3.00 h
  tmax Min: 0.750 h
50 mg single dose, read-out: Cmax Max
  Cmax: 1450 nM
human, plasma, oral, 2.5 mg, 2.5 mg single dose, read-out: AUC0-inf Mean
  AUC(0-inf): 0.396 µM·h
human, plasma, oral, 2.5 mg, 2.5 mg single dose, read-out: AUC0-inf Median
  AUC(0-inf): 0.398 µM·h
human, plasma, oral, 2.5 mg, 2.5 mg single dose, read-out: AUC0-inf gMean
  AUC(0-inf): 0.394 µM·h
human, plasma, oral, 2.5 mg, 2.5 mg single dose, read-out: Cmax Mean
  Cmax: 53.2 nM
human, plasma, oral, 2.5 mg, 2.5 mg single dose, read-out: Cmax Median
  Cmax: 55 nM
human, plasma, oral, 2.5 mg, 2.5 mg single dose, read-out: Cmax gMean
  Cmax: 52.9 nM
human, plasma, oral, 2.5 mg, 2.5 mg single dose, read-out: tmax Mean
  Tmax: 1.83 h
human, plasma, oral, 2.5 mg, 2.5 mg single dose, read-out: tmax Median
  Tmax: 1.75 h
human, plasma, oral, 2.5 mg, 2.5 mg single dose, read-out: tmax gMean
  Tmax: 1.72 h
human, plasma, oral, 10 mg, 10 mg single dose, read-out: AUC0-inf Mean
  AUC(0-inf): 1.73 µM·h
human, plasma, oral, 10 mg, 10 mg single dose, read-out: AUC0-inf Median
  AUC(0-inf): 1.78 µM·h
human, plasma, oral, 10 mg, 10 mg single dose, read-out: AUC0-inf gMean
  AUC(0-inf): 1.69 µM·h
human, plasma, oral, 10 mg, 10 mg single dose, read-out: Cmax Mean
  Cmax: 226 nM
human, plasma, oral, 10 mg, 10 mg single dose, read-out: Cmax Median
  Cmax: 239 nM
human, plasma, oral, 10 mg, 10 mg single dose, read-out: Cmax gMean
  Cmax: 221 nM
human, plasma, oral, 10 mg, 10 mg single dose, read-out: tmax Mean
  Tmax: 1.42 h
human, plasma, oral, 10 mg, 10 mg single dose, read-out: tmax Median
  Tmax: 1.5 h
human, plasma, oral, 10 mg, 10 mg single dose, read-out: tmax gMean
  Tmax: 1.38 h
human, plasma, oral, 25 mg, 25 mg single dose, read-out: AUC0-inf Mean
  AUC(0-inf): 3.83 µM·h
human, plasma, oral, 25 mg, 25 mg single dose, read-out: AUC0-inf Median
  AUC(0-inf): 3.98 µM·h
human, plasma, oral, 25 mg, 25 mg single dose, read-out: AUC0-inf gMean
  AUC(0-inf): 3.75 µM·h
human, plasma, oral, 25 mg, 25 mg single dose, read-out: Cmax Mean
  Cmax: 505 nM
human, plasma, oral, 25 mg, 25 mg single dose, read-out: Cmax Median
  Cmax: 520 nM
human, plasma, oral, 25 mg, 25 mg single dose, read-out: Cmax gMean
  Cmax: 490 nM
human, plasma, oral, 25 mg, 25 mg single dose, read-out: tmax Mean
  Tmax: 2.19 h
human, plasma, oral, 25 mg, 25 mg single dose, read-out: tmax Median
  Tmax: 2.05 h
human, plasma, oral, 25 mg, 25 mg single dose, read-out: tmax gMean
  Tmax: 2.06 h
human, plasma, oral, 50 mg, 50 mg single dose, read-out: AUC0-inf Mean
  AUC(0-inf): 8.58 µM·h
human, plasma, oral, 50 mg, 50 mg single dose, read-out: AUC0-inf Median
  AUC(0-inf): 8.29 µM·h
human, plasma, oral, 50 mg, 50 mg single dose, read-out: AUC0-inf gMean
  AUC(0-inf): 8.46 µM·h
human, plasma, oral, 50 mg, 50 mg single dose, read-out: Cmax Mean
  Cmax: 1110 nM
human, plasma, oral, 50 mg, 50 mg single dose, read-out: Cmax Median
  Cmax: 1100 nM
human, plasma, oral, 50 mg, 50 mg single dose, read-out: Cmax gMean
  Cmax: 1080 nM
human, plasma, oral, 50 mg, 50 mg single dose, read-out: tmax Mean
  Tmax: 1.75 h
human, plasma, oral, 50 mg, 50 mg single dose, read-out: tmax Median
  Tmax: 1.5 h
human, plasma, oral, 50 mg, 50 mg single dose, read-out: tmax gMean
  Tmax: 1.59 h
